Experimental data published in patent US6713473B1, “Tricyclic compounds” (Meiji Seika Kaisha, Ltd., priority 1999, dated 2004).

Target: T1, human Y5 receptor (Homo sapiens, UniProt Q15761)
T1 sequence (Q15761 1-445): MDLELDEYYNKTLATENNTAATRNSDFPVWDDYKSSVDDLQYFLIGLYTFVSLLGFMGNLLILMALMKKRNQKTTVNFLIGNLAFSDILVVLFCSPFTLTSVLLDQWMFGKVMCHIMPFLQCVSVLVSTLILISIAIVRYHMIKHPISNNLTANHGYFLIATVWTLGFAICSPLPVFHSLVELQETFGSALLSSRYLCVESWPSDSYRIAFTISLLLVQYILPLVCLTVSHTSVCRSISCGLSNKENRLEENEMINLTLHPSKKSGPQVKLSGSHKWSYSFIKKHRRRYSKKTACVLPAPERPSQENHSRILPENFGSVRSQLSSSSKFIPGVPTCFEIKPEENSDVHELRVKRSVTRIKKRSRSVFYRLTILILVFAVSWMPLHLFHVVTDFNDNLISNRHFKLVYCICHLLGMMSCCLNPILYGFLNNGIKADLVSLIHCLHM
Assay: Y5 receptor binding inhibition test
Conditions: not given

| Compound | % Inhibition ratio (10 μM) |
| --- | --- |
| O=C(Nc1ccc2c(c1)c1c(n2CCO)CCCC1)N1CCOCC1 [Compound 8-9] | 101% |
| CCCn1c2c(c3cc(NC(=O)N4CCOCC4)ccc31)CCCC2 [Compound 8-3] | 101% |
| CC(C)n1c2c(c3cc(NC(=O)N(CCO)CCO)ccc31)CCCC2 [Compound 6-2] | 86% |

Same assay, conditions: 2 h, read-out: % Inhibition ratio (10 μM)

| inhibition at 10 µM | Compound |
| --- | --- |
| 66% | COCCn1c2c(c3cc(C(=O)NCCOCCNS(C)(=O)=O)ccc31)CCCC2 [Compound 1-53] |
| 88% | CC(=O)n1c2ccccc2c2cc(C(=O)NCCCCCNS(=O)(=O)c3cccc4ccccc34)ccc21 [Compound 1-54] |
| 111% | CCn1c2ccccc2c2cc(C(=O)NCCCCCNS(=O)(=O)c3ccccc3)ccc21 [Compound 1-15] |
| 89% | CCn1c2c(c3cc(NC(C)=O)ccc31)CCC2 [Compound 3-3] |
| 73% | CCn1c2ccccc2c2cc(NS(C)(=O)=O)ccc21 [Compound 3-8] |
| 99% | CCn1c2ccccc2c2cc(C(=O)NCCCCCNS(C)(=O)=O)ccc21 [Compound 1-10] |
| 82% | CCn1c2ccccc2c2cc(C(=O)NCCCCCNC(=O)c3ccc4[nH]nnc4c3)ccc21 [Compound 1-26] |
| 88% | CCn1c2ccccc2c2cc(C(=O)NCCCCCNC(=O)C(C)C)ccc21 [Compound 1-18] |
| 100% | CCn1c2ccccc2c2cc(NC(=O)CCCCCNS(=O)(=O)c3cccc4cccnc34)ccc21 [Compound 1-7] |
| 96% | CCn1c2ccccc2c2cc(C(=O)NCCSCCNS(=O)(=O)c3cccc4ccccc34)ccc21 [Compound 1-27] |
| 91% | COCCn1c2ccccc2c2cc(C(=O)NCCCCCNS(=O)(=O)c3cccc4ccccc34)ccc21 [Compound 1-49] |
| 82% | CCn1c2ccccc2c2cc(C(=O)NCCCCCCNS(=O)(=O)c3cccc4ccccc34)ccc21 [Compound 1-33] |
| 100% | CC(C)n1c2ccccc2c2cc(C(=O)NCCCCCNS(=O)(=O)c3cccc4ccccc34)ccc21 [Compound 1-47] |
| 94% | CCn1c2ccccc2c2cc(C(=O)NCCCCNS(=O)(=O)c3cccc4ccccc34)ccc21 [Compound 1-31] |
| 96% | CC(C)n1c2c(c3cc(NC(=O)N(C)CCc4ccncc4)cc(F)c31)CCCC2 [Compound 12-2] |
| 92% | CCn1c2ccccc2c2c(OC)c(C(=O)NCCCCCNS(=O)(=O)c3cccc4ccccc34)ccc21 [Compound 1-36] |
| 87% | CCn1c2c(c3cc(C(=O)NCCCCCNS(=O)(=O)c4cccc5ccccc45)ccc31)CCCC2 [Compound 1-45] |
| 89% | CCn1c2ccccc2c2cc(C(=O)NCCCCCNC(=O)c3cccc4ccccc34)ccc21 [Compound 1-22] |
| 91% | CCn1c2ccccc2c2cc(NC(=O)CCCCCNS(=O)(=O)c3cccc4ccccc34)ccc21 [Compound 1-2] |

| inhibition at 10 µM | Compound |
| --- | --- |
| 88% | CCn1c2c(c3cc(NC(C)=O)ccc31)CCCC2 [Compound 3-1] |
| 80% | CCn1c2c(c3cc(C(=O)NCCOCCNS(C)(=O)=O)ccc31)CCCC2 [Compound 1-51] |
| 100% | CC(C)n1c2c(c3cc(NC(=O)CCCCCNS(=O)(=O)c4cccc5ccccc45)ccc31)CCCC2 [Compound 1-9] |
| 84% | CCn1c2ccccc2c2cc(C(=O)NCCCCCNC(=O)C3CCCCC3)ccc21 [Compound 1-19] |
| 77% | CC(C)S(=O)(=O)NCCCCCNC(=O)c1ccc2c(c1)c1c(n2CC(N)=O)CCCC1 [Compound 1-61] |
| 74% | CCn1c2ccccc2c2cc(C(=O)NCCCCCNS(=O)(=O)c3cccc4ccccc34)c(O)cc21 [Compound 1-42] |
| 100% | CCn1c2ccccc2c2cc(NC(=O)CCCCCNC(=O)c3cccnc3)ccc21 [Compound 1-8] |
| 94% | CCn1c2ccccc2c2cc(C(=O)NCCCCCNS(=O)(=O)c3cccc4cccnc34)ccc21 [Compound 1-16] |
| 89% | COCCn1c2c(c3cc(C(=O)NCCOCCNS(=O)(=O)C(C)C)ccc31)CCCC2 [Compound 1-50] |
| 78% | CCn1c2ccccc2c2cc(NC(=O)CCCCCCCNS(=O)(=O)c3cccc4ccccc34)ccc21 [Compound 1-3] |
| 97% | CC(C)n1c2c(c3cc(NC(=S)N(C)CCc4ccncc4)ccc31)CCCC2 [Compound 12-3] |
| 94% | CCn1c2c(c3cc(NC(C)=O)ccc31)CCCCC2 [Compound 3-2] |
| 103% | CCCS(=O)(=O)NCCCCCNC(=O)c1ccc2c(c1)c1ccccc1n2CC [Compound 1-11] |
| 86% | CC(C)S(=O)(=O)NCCCCCNC(=O)c1ccc2c(c1)c1c(n2CCOCCO)CCCC1 [Compound 1-60] |
| 93% | CCn1c2ccccc2c2cc(NC(=O)CCCCNS(=O)(=O)c3ccc4ccccc4c3)ccc21 [Compound 1-6] |
| 97% | CCn1c2ccccc2c2cc(C(=O)NCCCCCNC(=O)c3ccccc3)ccc21 [Compound 1-21] |
| 66% | COCCn1c2c(c3cc(C(=O)NCCOCCNS(=O)(=O)c4cccnc4)ccc31)CCCC2 [Compound 1-58] |
| 97% | CCn1c2ccccc2c2cc(C(=O)NCCCCCNS(=O)(=O)c3cccc4ccccc34)ccc21 [Compound 1-32] |
| 77% | CCn1c2ccccc2c2cc(C(=O)NCCCCCNC(=O)c3cccnc3)ccc21 [Compound 1-23] |

Same assay, conditions: test compound 10 μM; 3H-NPY; membrane of insect cells expressing human Y5 receptor; 4° C., 2 hours; relative to Y5 specific binding in solvent group

| % Inhibition ratio (10 μM) | Compound |
| --- | --- |
| 82% | CC(C)n1c2c(c3cc(NC(=O)N(C)CCCN(C)C)ccc31)CCCC2 [Compound 5-5] |
| 98% | CC(C)n1c2c(c3cc(NC(=O)N4CCCCCC4)ccc31)CCCC2 [Compound 7-3] |
| 97% | CC(C)n1c2c(c3cc(NC(=O)N4CCOCC4)ccc31)CCCCC2 [Compound 11-4] |
| 95% | CC(C)n1c2c(c3cc(NC(=O)N(C)CCCSc4nnc[nH]4)ccc31)CCCC2 [Compound 5-24] |
| 97% | CC(C)n1c2c(c3cc(NC(=O)N4CCC(O)CC4)ccc31)CCCC2 [Compound 7-7] |
| 99% | CC(C)n1c2c(c3cc(NC(=O)N4CCCCC4)ccc31)CCCC2 [Compound 7-2] |
| 101% | CC(C)n1c2c(c3cc(NC(=O)N(C)CCSc4ncc[nH]4)ccc31)CCCC2 [Compound 5-25] |
| 100% | CC(C)n1c2c(c3cc(NC(=O)N(C)[C@H]4CC[C@H](O)CC4)ccc31)CCCC2 [Compound 5-12] |
| 96% | CC(C)n1c2c(c3cc(NC(=O)N4CCSC4)ccc31)CCCC2 [Compound 7-14] |
| 97% | CC(C)n1c2c(c3cc(NC(=O)N(C)C4CCCCC4)ccc31)CCCC2 [Compound 5-11] |
| 98% | CC(C)n1c2c(c3cc(NC(=O)N4CCOCC4)ccc31)CCCC2 [Compound 8-4] |
| 100% | CC(C)Cn1c2c(c3cc(NC(=O)N4CCOCC4)ccc31)CCCC2 [Compound 8-6] |
| 92% | CC(C)n1c2c(c3cc(NC(=O)N4CCCC4)ccc31)CCCC2 [Compound 7-1] |
| 100% | CC(C)n1c2c(c3cc(NC(=O)N(C)CCc4cccnc4)ccc31)CCCC2 [Compound 5-19] |
| 98% | CC(C)n1c2c(c3cc(NC(=O)N(C)CCSc4nnc[nH]4)ccc31)CCCC2 [Compound 5-23] |
| 94% | CC(C)n1c2c(c3cc(NC(=O)N4CCOCC4)ccc31)CCC2 [Compound 10-4] |
| 92% | CC(C)n1c2c(c3cc(NC(=O)N4CCNCC4)ccc31)CCCC2 [Compound 7-18] |

| Compound | % Inhibition ratio (10 μM) |
| --- | --- |
| CC(C)n1c2c(c3cc(NC(=O)N4CCC(N5CCCCC5)CC4)ccc31)CCCC2 [Compound 7-13] | 83% |
| CCn1c2c(c3cc(NC(=O)N4CCOCC4)ccc31)CCCC2 [Compound 8-2] | 95% |
| COCCN(CCOC)C(=O)Nc1ccc2c(c1)c1c(n2C(C)C)CCCC1 [Compound 6-3] | 102% |
| CC(C)n1c2c(c3cc(NC(=O)N(C)CCc4ccccn4)ccc31)CCC2 [Compound 10-2] | 83% |
| CC(C)n1c2c(c3cc(NC(=O)N(C)CC4CCCO4)ccc31)CCCC2 (stereo not drawn) [Compound 5-13] | 98% |
| N#CCn1c2c(c3cc(NC(=O)N4CCOCC4)ccc31)CCCC2 [Compound 8-10] | 78% |
| CC(=O)n1c2c(c3cc(NC(=O)N4CCOCC4)ccc31)CCCC2 [Compound 8-11] | 102% |
| CC(C)n1c2c(c3cc(NC(=O)N(C)CCCCO)ccc31)CCCC2 [Compound 5-6] | 89% |
| CC(C)n1c2c(c3cc(NC(=O)N(C)CCc4ccncc4)ccc31)CCCC2 [Compound 5-20] | 103% |
| CC(C)n1c2c(c3cc(NC(=O)N4CCOC(CCO)C4)ccc31)CCCC2 (stereo not drawn) [Compound 7-17] | 99% |
| CC(C)n1c2c(c3cc(NC(=O)N(C)CCc4ccccn4)ccc31)CCCCC2 [Compound 11-2] | 96% |
| CC(C)n1c2c(c3cc(NC(=O)N(C)CCC#N)ccc31)CCCC2 [Compound 5-9] | 98% |
| CC(C)n1c2c(c3cc(NC(=O)N(C)CCN4CCOCC4)ccc31)CCCC2 [Compound 5-16] | 86% |
| CCCCN(C)C(=O)Nc1ccc2c(c1)c1c(n2C(C)C)CCCC1 [Compound 5-3] | 98% |
